# pIC50: −log10 of the molar value.
# System: 521955-158-R2-J5-PDC complex spheroid viability
# Test: Anticancer human tumor 521955-158-R2-J5-PDC patient-derived pancreatic carcinoma cell line growth inhibition [GQUAD]
# Conditions: for pIC50: curve of first compound; for viability, T/C: stronger effect = lower value
# Description: DNA G-quadruplex Stabilizer Agents in Combinations in Complex Spheroids
# A high-throughput screen of multi-cell type tumor spheroids was designed to identify active combinations of DNA G-quadruplex stabilizer agents and targeted small molecules. Complex spheroids include a stromal component modeled by human endothelial cells (HUVEC) and fibroblasts modeled by human mesenchymal stem cells (MSCs). The concentration ranges selected for each drug and investigational agent were based upon clinically achievable concentrations if the clinical Cmax of the agent was known.
# Compounds. The drugs and investigational agents: pidnarulex (CX-5461; NSC782164), APTO-253 (NSC789042), BRACO-19 (NSC847499), peposertib (NSC802822), ceralasertib (NSC780249), elimusertib (NSC800525), camonsertib (NSC841442), AZD-1390 (NSC803789), olaparib (NSC753686), talazoparib (NSC767125), ART-558 (NSC835418), sotorasib (NSC818433), MRTX-1133 (NSC836407), SN-38 (NSC673596), topotecan (NSC609699), etoposide (NSC141540), doxorubicin (NSC123127), gemcitabine (NSC613327), 5-fluorouracil (NSC19893), paclitaxel (NSC125973), vemurafenib (NSC761431), panobinostat (NSC761190), R-306465 (JNJ-16241199; NSC773264), adavosertib (NSC754352), TP-3654 (NSC805149), carboplatin (NSC241240), KSQ-4279 (NSC840948), and staurosporine (NSC755774) were obtained from the National Cancer Institute (NCI) Developmental Therapeutics Program Chemical Repository (34). The FDA-approved anticancer drug set is available from the NCI Developmental Therapeutics Program. […] The stock solutions were prepared in dimethyl sulfoxide (DMSO, Sigma-Aldrich, St. Louis, MO, cat. D2650) at 800-fold the tested concentration and stored at -70 degrees C prior to their use. All drugs and investigational agents were tested over a range starting from a high concentration at or near the clinical Cmax and decreasing in half-log increments. If the clinical Cmax for an agent had not been determined, the highest concentration tested was 10 microM.
# 2.3 Cell Culture. All cells were maintained in an incubator at 37 degrees C and 5% CO2 with 95% humidity. The PDC lines were cultured according to standard operating procedures established by the NCI PDMR. All PDCs were thawed and cultured in Matrigel-coated flasks prepared with a working solution of 1X Ham's F-12 nutrient mix, without supplementation (Invitrogen, cat. 11765054), 100 U/mL penicillin-streptomycin (Invitrogen, cat. 15140122), and 2.5% Matrigel (Corning Inc., cat. 354248) for the first three passages. The 857933-349-R-J2-PDC line was cultured in 6C/Colon 1B media, which includes advanced DMEM/F-12 (Thermo Fisher Scientific, cat. 12634028), 10 mM HEPES (Thermo Fisher Scientific, cat. 15630080), 1X GlutaMAX supplement (Thermo Fisher Scientific, cat. 35050061), 0.1 mg/mL primocin (InvivoGen, cat. ant-pm-2), 10% defined fetal bovine serum, heat inactivated (HyClone Laboratories Inc., cat. SH30070.03HI), 50% L-WRN conditioned media (ATCC, cat. CRL-3276), 1.25 mM N-Acetyl-L-cysteine (Sigma-Aldrich, cat. A9165), 10 mM nicotinamide (Sigma-Aldrich, cat. N0636), 1X B-27 supplement (Thermo Fisher Scientific, cat. 17504044), 1X N-2 supplement (Thermo Fisher Scientific, cat. 17502048), 10 microM Y-27632 dihydrochloride (Tocris Bioscience, cat. 1254), and 50 ng/mL human EGF recombinant protein (Thermo Fisher Scientific, cat. PHG0311). The 485176-168-R4-J1-PDC line was cultured in Panc media, which includes all 6C/Colon 1B media components plus 100 ng/mL human FGF-10 (Thermo Fisher Scientific, cat. 100-26), 500 nM SB-431542 (Selleckchem, cat. S1067), and gastrin (Tocris, cat. 3006).
# […]
# [1] = second compound 0.0316 µM, first compound 0.0316 µM
# [2] = second compound 0.0316 µM, first compound 0.316 µM
# [3] = second compound 0.1 µM, first compound 0.0316 µM
# [4] = second compound 0.1 µM, first compound 0.316 µM
# [5] = second compound 0.316 µM, first compound 0.0316 µM
# [6] = second compound 0.316 µM, first compound 0.316 µM
# [7] = second compound 1 µM, first compound 0.0316 µM
# [8] = second compound 1 µM, first compound 0.316 µM
# [9] = second compound 3.16 µM, first compound 0.0316 µM
# [10] = second compound 3.16 µM, first compound 0.316 µM
# [11] = second compound 10 µM, first compound 0.0316 µM
# [12] = second compound 10 µM, first compound 0.316 µM
# 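Further: spheroids exposed to agents for one week before reading.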
# 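Wherever viability, T/C is given: 100% = DMSO vehicle control viability.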
smiles,measurement,setting,value
CCCS(=O)(=O)Nc1ccc(F)c(C(=O)c2c[nH]c3ncc(-c4ccc(Cl)cc4)cc23)c1F + Cc1cnc(CNC(=O)c2c(=O)c3ccc(N4CCCN(C)CC4)nc3n3c2sc2ccccc23)cn1,pIC50,second compound 0.0316 µM,5.03
same,pIC50,second compound 0.1 µM,< 5.00
same,pIC50,second compound 0.316 µM,> 7.50
same,pIC50,second compound 1 µM,> 7.50
same,pIC50,second compound 3.16 µM,> 7.50
same,pIC50,second compound 10 µM,> 7.50
same,"viability, T/C",[1],79.5%
same,"viability, T/C","second compound 0.0316 µM, first compound 0.1 µM",63.5%
same,"viability, T/C",[2],113%
same,"viability, T/C","second compound 0.0316 µM, first compound 1 µM",113%
same,"viability, T/C","second compound 0.0316 µM, first compound 3.16 µM",109%
same,"viability, T/C","second compound 0.0316 µM, first compound 10 µM",46.8%
same,"viability, T/C",[3],52.4%
same,"viability, T/C","second compound 0.1 µM, first compound 0.1 µM",69.6%
same,"viability, T/C",[4],59.4%
same,"viability, T/C","second compound 0.1 µM, first compound 1 µM",64%
same,"viability, T/C","second compound 0.1 µM, first compound 3.16 µM",61.8%
same,"viability, T/C","second compound 0.1 µM, first compound 10 µM",39%
same,"viability, T/C",[5],32%
same,"viability, T/C","second compound 0.316 µM, first compound 0.1 µM",37.3%
same,"viability, T/C",[6],27.1%
same,"viability, T/C","second compound 0.316 µM, first compound 1 µM",32.6%
same,"viability, T/C","second compound 0.316 µM, first compound 3.16 µM",35.7%
same,"viability, T/C","second compound 0.316 µM, first compound 10 µM",26.4%
same,"viability, T/C",[7],17.8%
same,"viability, T/C","second compound 1 µM, first compound 0.1 µM",18.2%
same,"viability, T/C",[8],17.9%
same,"viability, T/C","second compound 1 µM, first compound 1 µM",18.9%
same,"viability, T/C","second compound 1 µM, first compound 3.16 µM",24.2%
same,"viability, T/C","second compound 1 µM, first compound 10 µM",16.8%
same,"viability, T/C",[9],12.7%
same,"viability, T/C","second compound 3.16 µM, first compound 0.1 µM",14.3%
same,"viability, T/C",[10],16.8%
same,"viability, T/C","second compound 3.16 µM, first compound 1 µM",16.1%
same,"viability, T/C","second compound 3.16 µM, first compound 3.16 µM",20.7%
same,"viability, T/C","second compound 3.16 µM, first compound 10 µM",0.32%
same,"viability, T/C",[11],9.58%
same,"viability, T/C","second compound 10 µM, first compound 0.1 µM",16.2%
same,"viability, T/C",[12],16.9%
same,"viability, T/C","second compound 10 µM, first compound 1 µM",18.7%
same,"viability, T/C","second compound 10 µM, first compound 3.16 µM",21.4%
same,"viability, T/C","second compound 10 µM, first compound 10 µM",0.33%
CC[C@@]1(O)C(=O)OCc2c1cc1n(c2=O)Cc2cc3c(CN(C)C)c(O)ccc3nc2-1 + Cc1cnc(CNC(=O)c2c(=O)c3ccc(N4CCCN(C)CC4)nc3n3c2sc2ccccc23)cn1,pIC50,second compound 0.0316 µM,7.25
same,pIC50,second compound 0.1 µM,7.56
same,pIC50,second compound 0.316 µM,7.97
same,pIC50,second compound 1 µM,> 9.00
same,pIC50,second compound 3.16 µM,> 9.00
same,pIC50,second compound 10 µM,> 9.00
same,"viability, T/C","second compound 0.0316 µM, first compound 0.000999 µM",82.3%
same,"viability, T/C","second compound 0.0316 µM, first compound 0.00316 µM",80.4%
same,"viability, T/C","second compound 0.0316 µM, first compound 0.00999 µM",59.7%
same,"viability, T/C",[1],71.6%
same,"viability, T/C","second compound 0.0316 µM, first compound 0.0999 µM",29%
same,"viability, T/C",[2],12.1%
same,"viability, T/C","second compound 0.1 µM, first compound 0.000999 µM",74.9%
same,"viability, T/C","second compound 0.1 µM, first compound 0.00316 µM",78%
same,"viability, T/C","second compound 0.1 µM, first compound 0.00999 µM",73.3%
same,"viability, T/C",[3],46.7%
same,"viability, T/C","second compound 0.1 µM, first compound 0.0999 µM",22.4%
same,"viability, T/C",[4],16.2%
same,"viability, T/C","second compound 0.316 µM, first compound 0.000999 µM",51.6%
same,"viability, T/C","second compound 0.316 µM, first compound 0.00316 µM",47.2%
same,"viability, T/C","second compound 0.316 µM, first compound 0.00999 µM",55%
same,"viability, T/C",[5],29.6%
same,"viability, T/C","second compound 0.316 µM, first compound 0.0999 µM",18.7%
same,"viability, T/C",[6],15.6%
same,"viability, T/C","second compound 1 µM, first compound 0.000999 µM",23.7%
same,"viability, T/C","second compound 1 µM, first compound 0.00316 µM",24.9%
same,"viability, T/C","second compound 1 µM, first compound 0.00999 µM",24.6%
same,"viability, T/C",[7],19%
same,"viability, T/C","second compound 1 µM, first compound 0.0999 µM",16.7%
same,"viability, T/C",[8],11.2%
same,"viability, T/C","second compound 3.16 µM, first compound 0.000999 µM",21.1%
same,"viability, T/C","second compound 3.16 µM, first compound 0.00316 µM",29.1%
same,"viability, T/C","second compound 3.16 µM, first compound 0.00999 µM",18.2%
same,"viability, T/C",[9],17.8%
same,"viability, T/C","second compound 3.16 µM, first compound 0.0999 µM",11.8%
same,"viability, T/C",[10],10.1%
same,"viability, T/C","second compound 10 µM, first compound 0.000999 µM",21.3%
same,"viability, T/C","second compound 10 µM, first compound 0.00316 µM",23.7%
same,"viability, T/C","second compound 10 µM, first compound 0.00999 µM",22.1%
same,"viability, T/C",[11],15.7%
same,"viability, T/C","second compound 10 µM, first compound 0.0999 µM",11.5%
same,"viability, T/C",[12],6.12%

# Source: PubChem BioAssay AID2060495 (Molecular Pharmacology Branch, DTP, NCI, 2025)
